According to paper PMC13130965, “An Integrated Approach Combining Regulatory Tests in tg(cyp19a1b:GFP) Zebrafish Embryos to Assess Toxicity, Developmental Effects, and Estrogenic Activity of Chemicals: A Case Study with Bisphenol A Substitutes” (Environmental Science & Technology, 2026):
≈ marks a conversion by molar mass, not a printed value. Where “and” joins values, the source holds several entries; their conditions need not be identical. Equal entries are not always repeated. Where two headings read alike, the source gives them in different places.

What was measured:
hERβ [1] = test system: hERβ; design: method as in Grimaldi et al.; conditions: HELN-hERβ; ref Grimaldi et al.; cited from earlier work
zebrafish ERβ2 (zfERβ2) = zebrafish ERβ2 (zfERβ2) (Danio rerio, UniProt Q7ZU32); assay: ZELH-zfERβ2 luciferase reporter gene assay; assay type: cell-based; conditions: % of positive control E2 10 nM
Chain of zebrafish ERβ2 (zfERβ2) (Q7ZU32 1-553): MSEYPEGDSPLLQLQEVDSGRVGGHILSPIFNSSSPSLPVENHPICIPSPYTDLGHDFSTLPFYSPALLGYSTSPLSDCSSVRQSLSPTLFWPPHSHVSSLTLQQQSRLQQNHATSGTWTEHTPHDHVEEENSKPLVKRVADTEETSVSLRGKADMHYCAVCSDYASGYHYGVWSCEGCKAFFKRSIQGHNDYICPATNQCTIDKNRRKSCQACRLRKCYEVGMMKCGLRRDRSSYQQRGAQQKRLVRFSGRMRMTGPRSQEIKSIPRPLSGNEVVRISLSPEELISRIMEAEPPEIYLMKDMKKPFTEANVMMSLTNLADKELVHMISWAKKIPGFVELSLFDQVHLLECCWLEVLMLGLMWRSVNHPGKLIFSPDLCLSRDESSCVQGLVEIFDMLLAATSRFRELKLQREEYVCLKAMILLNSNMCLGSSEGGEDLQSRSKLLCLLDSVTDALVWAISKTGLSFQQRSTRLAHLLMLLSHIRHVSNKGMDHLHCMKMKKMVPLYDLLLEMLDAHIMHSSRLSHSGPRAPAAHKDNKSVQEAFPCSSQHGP
Description: The ZELH-zfERs reporter cell line was previously established after a two-step stable transfection of the zebrafish hepatic cell line ZFL with the luciferase gene under the control of ERE (yielding the ZELH cell line that expresses no functional ER) and the zebrafish ER subtype β2 (yielding the ZELH-zfERβ2 cell line). Cells were cultured, exposed to chemicals for 72 h, and measured for luciferase activity exactly as previously described. , For each chemical, serial dilutions were prepared in DMSO and tested in three independent experiments. The final DMSO concentration in the culture medium was always 0.1% v/v. All tested concentrations refer to nominal concentrations.

[2] = test system: tg(cyp19a1b:GFP) zebrafish embryos; assay: Refined FET: developmental effects / malformations; assay type: in vivo, zebrafish (Danio rerio); conditions: nominal
Description: (§1) Exposures were carried out in presaturated 24-well plates containing one embryo per well in 2 mL of test solution. The exposure was performed under semistatic conditions, with daily renewal of the test solution. The concentration ranges tested, along with a control with the same percentage of solvent alone, are recapitulated in Table S1. All exposure concentrations are reported as nominal. During the time course of the refined FET tests, embryos were observed after 8 h (coagulation), 24 h (lack of somite formation and nondetachment of the tail), and 48, 72, and 96 h of exposure (nondetection of the heartbeat). […] Moreover, hatching rate and nonlethal developmental effects (i.e., yolk deformity, growth retardation, spontaneous movement, edema, blood tail circulation, heart rate, pigmentation, head and tail/spinal malformations, and hemorrhage) were monitored daily. Tail/spinal malformations included lordosis, kyphosis, scoliosis, and reduced tail length.
(§2) This analysis considered all nonlethal developmental end points monitored in the refined FET assay (see above), except effects on hatching, pigmentation, spontaneous movement, and blood circulation. A teratogenic index (TI) was then calculated as the ratio LC50/EC50.

Adult Zebrafish = conditions: ref Ren et al. (2017); cited from earlier work
[3] = test system: Zebrafish embryos ERE-GFP-Casper; design: method as in Green et al. (2016); conditions: 120h exposure; ref Green et al. (2016); cited from earlier work
[4] = ref Adamovsky et al.; cited from earlier work
Zebrafish embryos = conditions: cited from earlier work; for LC50: read-out: LC50(96h)
Fathead minnow = conditions: 4-days exposure, ref Corrales et al. (2017); cited from earlier work
hERβ [5] = test system: hERβ; design: method as in Pelch et al.; conditions: HepG2-hERβ, ref Pelch et al., cited from earlier work
[6] = Refined Fish Embryo Acute Toxicity test (FET, OECD TG 236): mortality; assay type: in vivo, zebrafish (Danio rerio); conditions: tg(cyp19a1b:GFP), zebrafish, in vivo, LC50 (96h) experimental (FET test), nominal, brackets 95% CI
Description: as §1, §2
Baseline toxicity and experimental FET LC50 values were used to calculate toxic ratios (TR = predicted baseline toxicity LC50/experimental FET LC50). Compounds with TR < 10 were considered as baseline toxicants.

[7] = experimental value; ref Epi-Suite (US-EPA); cited from earlier work
[8] = 72h exposure, ref Duan et al. (2008)
[9] = 120h-exposure, ref Qiu et al. (2021)
[10] = 150h exposure, ref Song et al. (2014)
[11] = zebrafish embryos, ref Ren et al. (2017)

CC(C)(c1ccc(O)cc1)c1ccc(O)cc1 [BPA, 4-[2-(4-hydroxyphenyl)propan-2-yl] phenol]
EC50 (hERβ [1]): 0.384 µM
maximal efficacy (hERβ [1]): 66%
maximal efficacy (zebrafish ERβ2 (zfERβ2)): 55%
EC50 ([2]; Danio rerio, end of 96 h exposure, read-out: EC50 malformations (cumulative sublethal end points)): 6.06 µg/mL (≈ 26.5 µM)
LOEC edema [2]: 10 mg/L
LOEC growth retardation [2]: 20 mg/L
LOEC heart rate disruption [2]: 20 mg/L
LOEC hemorrhage [2]: 10 mg/L
LOEC no spontaneous movement [2]: 10 mg/L
LOEC no/Less pigmentation [2]: 10 mg/L
LOEC tail/spinal malformations [2]: 10 mg/L
LOEC deformity of yolk ([2]; at least 10% of embryos affected): 20 mg/L
LC50(24h) (Adult Zebrafish): 9.51 µg/mL (≈ 41.7 µM)
LC50(48h) (Adult Zebrafish): 9.31 µg/mL (≈ 40.8 µM)
LC50(72h) (Adult Zebrafish): 8.09 µg/mL (≈ 35.4 µM)
LC50(96h) (Adult Zebrafish): 8.09 µg/mL (≈ 35.4 µM)
EC50 [3]: 1.226 µg/mL (≈ 5.37 µM)
LOEC [3]: 1000 µg/L and 4380.32 nM
Log Kow [4]: 3.32
mortality (Zebrafish embryos; 100 µM (23 mg/L) at 72h, ref Björnsdotter et al. (2017)): 100%
mortality (Zebrafish embryos; 20 mg/L, 48h, ref Makarova et al. (2016)): 65%
LC10(96h) (Zebrafish embryos; 4-days exposure, ref Blanc et al. (2019)): 6.62 µg/mL (≈ 29 µM)
LC50(48h) (Zebrafish embryos; 4-days exposure, ref Tišler et al. (2016)): 15.9 (13.8-18.3) mg/L
mortality (Zebrafish embryos; 5-15 µM, ref McCormick et al. (2010)): 4-8%
LC50(24h) (Zebrafish embryos; [8]): 16.75 µg/mL (≈ 73.4 µM)
NOEC (Zebrafish embryos; [8]): 2 mg/L
LOEC (body length, GnRH3 neurons, reproductive neuroendocrine-related genes and hormones) (Zebrafish embryos; [9]): 100 µg/L
NOEC (body length, GnRH3 neurons, reproductive neuroendocrine-related genes and hormones) (Zebrafish embryos; [9]): 1 µg/L
LC50(144h) (Zebrafish embryos; [10]): 7.5 µg/mL (≈ 32.9 µM)
LOAELs (Zebrafish embryos; [10]): 5 mg/L
NOEC (developmental toxicity) (Zebrafish embryos; Wildtype (AB/TL), 1-6 dpf static + 6-9 dpf semistatic, ref Catron et al. (2018; 2019)): 11.5 µM
LC50(96h) (Zebrafish embryos; Zebrafish, 4-days exposure, ref Corrales et al. (2017)): 12.8 µg/mL (≈ 56.1 µM)
scoliosis (% of embryos) (Zebrafish embryos; at 8.041 mg/L, 2-5 dpf exposure, ref Martínez et al. (2019)): 16%
mortality (Zebrafish embryos; at 25 mg/L, ref Duan et al. (2008)): 100%
LC50 (Zebrafish embryos; 4-days exposure, ref Chow et al. (2013)): 35 µM
LC50 (Zebrafish embryos; Wildtype AB, 96h-exposure, ref Arrokhman et al. (2023)): 57.1 µM
delayed hatching EC50(96h) (Zebrafish embryos; ref Chow et al. (2013)): 5.25 µg/mL
LC50(5dpf) (Zebrafish embryos; ref McCormick et al. (2011)): 5 (±0.89) mg/L
LC50(28dpf) (Zebrafish embryos; ref McCormick et al. (2011)): 1.8 µg/mL (≈ 7.88 µM)
LOAEL(5dpf) (Zebrafish embryos; ref McCormick et al. (2011)): 1 mg/L
Edema EC50(48h) (Zebrafish embryos; ref Tišler et al. (2016)): 13.9 (8.5-22.8) mg/L
Hatching inhibition EC50(72h) (Zebrafish embryos; ref Tišler et al. (2016)): 4.0 µg/mL
Missing blood flow EC50(48h) (Zebrafish embryos; ref Tišler et al. (2016)): 12.3 µg/mL
Pigmentation EC50(48h) (Zebrafish embryos; ref Tišler et al. (2016)): 3.6 (2.5-5.3) mg/L
LC50 (96h) literature (Zebrafish embryos; zebrafish embryos, 95% CI, ref Chow et al.): 8.041 [7.846;8.24] mg/L
LC50 (96h) literature (Zebrafish embryos; zebrafish embryos, 95% CI, ref Mu et al.): 10.4 [9.44–11.58] mg/L
LC50 (96h) literature (Zebrafish embryos; zebrafish embryos, parentheses SEM, ref Moreman et al.): 12 (0.22) mg/L
LC50 (96h) literature (Zebrafish embryos; zebrafish embryos, ref Arrokhman et al.): 13 mg/L (≈ 56.9 µM)
LC50 (96h) literature (Zebrafish embryos; zebrafish embryos, ref Blanc et al.): 9.82 mg/L (≈ 43 µM)
LC50 (96h) literature (Zebrafish embryos; zebrafish embryos, ref Gao et al.): 11.69 mg/L (≈ 51.2 µM)
Body length LOEC (Zebrafish embryos; [11]): 4 mg/L
Body length NOEC (Zebrafish embryos; [11]): 2 mg/L
LC50 (96h) literature (Zebrafish embryos; zebrafish embryos, ref Ren et al.): 5.82 mg/L (≈ 25.5 µM)
LC50(96h) (Fathead minnow): 4.2 µg/mL (≈ 18.4 µM)
EC50 (hERβ [5]; NA = not active): 0.35 µM
maximal efficacy (hERβ [5]): 97%
LC50 at 96 h [6]: 14.1 µg/mL (≈ 61.9 µM)
Water solubility [7]: 300 µg/mL
